For experiment [1], the system named is human Schlemm's canal (SC) cell monolayers. How it is done:
(§1) SC Cells: Human cadaveric eye tissue was obtained from Donor Network of Arizona, San Diego Lions Eye Bank or North Carolina Lions Eye Bank within 48 hours of death for whole eyes stored in moist chambers, and within 96 hours for non-transplantable corneal anterior segments stored in Optisol (Chiron Vision, Clairmont, Calif.). Human SC cells were isolated from the cadaveric eye tissue using gelatin-coated cannulas, as described previously (Stamer W D, et al Invest Opthalmol Vis Sci 1998; 39:1804-1812) or by differential dissection (O'Brien E, Invest. Opthalmol. Vis. Sci. 2000; 41:3842-3849). Cells used in perfusion studies were isolated by both methods while only cells isolated by differential dissection were used in morphology experiments. Cells were grown and maintained in Dulbecco's Modified Eagle Medium (DMEM) and maintained in humidified air containing 5% CO2 at 37° C., as described previously (Stamer W D, et al Invest Opthalmol Vis Sci 1998; 39:1804-1812). Human SC cells were seeded at 100,000 cells/cm^2onto 1-cm^2 Snapwell Filters (Snapwell; Costar, Acton, Mass.) with 0.4-μm pore diameter in 10% FBS/DMEM. Primary cultures of eight SC cell strains were isolated from eight different cadaveric eyes without a history of glaucoma and used in the present study (SC3, SC6, SC10, SC11, SC41, SC42, SC 57 and SC68).
(§2) Transendothelial electrical resistance (TEER) of cell monolayers cultured on Snapwell filters was measured using a TEER measurement chamber (ENDOHM-24; World Precision Instruments) in conjunction with an epithelial voltohmmeter (EVOM; World Precision Instruments). Following three rinses with prewarmed 20 mM HEPES (Sigma, St. Louis, Mo.) buffered DMEM (serum-free, pH 7.4; HEPES-DMEM), filters were carefully transferred to the TEER measurement chamber filled with HEPES-DMEM. […] Pressure in the upstream compartment was generated by an elevated reservoir of HEPES-DMEM, with pressure recorded using a pressure transducer (AH 60-3002; Harvard Apparatus, Holliston, Mass.), while the downstream compartment was vented to atmospheric pressure. The rate of fluid flow through the chamber was calculated from the weight change per unit time of the reservoir measured using an isometric transducer (AH 60-2994; Harvard Apparatus). Pressure and weight data were recorded simultaneously at 30 times/sec onto hard drive of computer using a Data Acquisition System (MP100WSW; Biopac Systems, Inc., Santa Barbara, Calif.).
Once stable TEER was achieved, a valve between the reservoir and chamber was opened to expose the upstream chamber to pressure. TEER, flow, and pressure measurements were recorded for 20 minutes to establish baseline values.

Experiment [2] concerns MDCK cell monolayers. Here is the method: (§3) MDCK Cells: Madin-Darby Canine Kidney cells (MDCK), were used as a control to characterize perfusion system and for comparisons to SC monolayers. […] MDCK cells thus served as a positive control for comparisons with SC cells in subsequent experiments. MDCK Cells used in the present study were a gift from Dr. Ronald Lynch (University of Arizona) and were used between passages 14-16. Cells were grown in DMEM and maintained in humidified air containing 5% CO2 at 37° C. for at least three weeks after reaching confluence before experimentation.
as §2
(§4) Once stable TEER was achieved, a valve between the reservoir and chamber was opened to expose the upstream chamber to pressure. TEER, flow, and pressure measurements were recorded for 20 minutes to establish baseline values. […] The medium in the upstream chamber was then exchanged with […] HEPES-DMEM at a rate of 2.5 ml/min, and a second 10-minute baseline period was measured.

The test system of experiment [3] is human Schlemm's canal (SC) cell monolayers. How it is done: as §1
as §2, with “Instruments).” for “Instruments). Following three rinses with prewarmed 20 mM HEPES (Sigma, St. Louis, Mo.) buffered DMEM (serum-free, pH 7.4; HEPES-DMEM), filters were carefully transferred to the TEER measurement chamber filled with HEPES-DMEM.”
as §4
This is another data set of the same source.

The subject of experiment [4] is MDCK cell monolayers. How it is done:
as §3
Transendothelial electrical resistance (TEER) of cell monolayers cultured on Snapwell filters was measured using a TEER measurement chamber (ENDOHM-24; World Precision Instruments) in conjunction with an epithelial voltohmmeter (EVOM; World Precision Instruments). Following three rinses with prewarmed 20 mM HEPES (Sigma, St. Louis, Mo.) buffered DMEM (serum-free, pH 7.4; HEPES-DMEM), filters were carefully transferred to the TEER measurement chamber filled with HEPES-DMEM. […] The Snapwell filters containing the cell monolayers were then carefully placed into an Ussing-type chamber (Ussing system CHM5; World Precision Instruments, Sarasota, Fla.) filled with HEPES-DMEM and maintained at 37° C. in an air incubator for 15 minutes prior to pressure application. Filters were oriented such that the apical surface of cell monolayers faced the upstream chamber. Flow through cell monolayers was a function of the pressure gradient between the upstream and downstream compartments of the chamber. Pressure in the upstream compartment was generated by an elevated reservoir of HEPES-DMEM, with pressure recorded using a pressure transducer (AH 60-3002; Harvard Apparatus, Holliston, Mass.), while the downstream compartment was vented to atmospheric pressure. The rate of fluid flow through the chamber was calculated from the weight change per unit time of the reservoir measured using an isometric transducer (AH 60-2994; Harvard Apparatus). Pressure and weight data were recorded simultaneously at 30 times/sec onto hard drive of computer using a Data Acquisition System (MP100WSW; Biopac Systems, Inc., Santa Barbara, Calif.).
as §4
Hydraulic conductivity was measured continuously and TEER measurements were then taken every five minutes for the duration of the trial.
The source holds these as a separate data set.

Experiment [5] relates to SC cell monolayers (cell margins). Here is the method: as §1
In experiment [6] the test system is MDCK cell monolayers (cell borders). The settings on record: by 60 seconds after Na2EDTA, data not shown. How it is done:
as §3

Structures are written as SMILES. Like-named read-outs stand apart in the source and are kept apart here.

For `O=C([O-])CN(CCN(CC(=O)[O-])CC(=O)O)CC(=O)O.[Na+].[Na+]` [Na2EDTA], in experiment [1] (SC monolayers, functionally via TEER measurements), the “time required for functional return after washout of Na2EDTA” value came out at 2 h. For the same molecule, the “change in TEER decrease relative to 30-minute baseline in presence of pressure (paired t-test)” value in experiment [1] (SC, 5 mM Na2EDTA) was “no significant change”. Further, the “average rate of TEER decrease after Na2EDTA treatment” value in experiment [1] (SC, 5 mM Na2EDTA for 5 min, 4-6 mm Hg, n=5, +/- SEM) is on record as 0.34 (+/−0.26 SEM) Ωcm^2/min; in the experiment with MDCK cell monolayers [2] (25 mM Na2EDTA for 5 min, 14-16 mm Hg, n=4, +/- SEM), 1.9 (+/−0.12 SEM) Ωcm^2/min. Besides, the “average rate of change of TEER following rinse with normal medium” value was “not significantly different from pre-Na2EDTA rates” in experiment [1] (SC, after 5 mM Na2EDTA for 5 min) and “not significantly different from pre-Na2EDTA rates” in the experiment with MDCK cell monolayers [2] (after 25 mM Na2EDTA for 5 min). Further, in the experiment with MDCK cell monolayers [2] (25 mM Na2EDTA, p=0.06), the “change in TEER relative to baseline in presence of pressure (paired t-test)” value is on record as “approached significance”. In addition, in experiment [3] (SC monolayers, 0.5-2 mM Na2EDTA, n=6), the “impact of lower concentrations on HC or TEER” value was “not to impact significantly”. In experiment [3] (SC monolayers, titration experiments, time course of the experiments, n=13-15, data not shown), the “minimum Na2EDTA needed to effect both hydraulic conductivity and TEER” value amounted to 5 mM. The “percent change in HC relative to baseline following Na2EDTA treatment versus percent change between the two baseline measurements” value in experiment [3] (SC, paired t-test, p<0.05) is given as “significantly greater”; in the experiment on MDCK cell monolayers [4] (MDCK, paired t-test, p<0.05) it was “significantly greater”. The “percent change in HC relative to baseline following post-Na2EDTA rinse versus percent change between the two baseline measurements” value in experiment [3] (SC, paired t-test, p<0.05) is reported as “significantly greater”; in the experiment with MDCK cell monolayers [4] (MDCK, paired t-test) it was “not”. In addition, the “recovery of TEER and hydraulic conductivity shortly after washout of Na2EDTA” value in the experiment on MDCK cell monolayers [4] (MDCK cell monolayers, perfusion experiments) is given as “partial recovery”. Besides, the “minimum Na2EDTA required to effect both hydraulic conductivity and TEER” value in the experiment on MDCK cell monolayers [4] (MDCK cell monolayers, titration experiments, time course of the experiments, n=13-15, data not shown) worked out at 25 mM. In experiment [5] (10 mM Na2EDTA for 5 minutes, then normal medium, data not shown), the “time required for cell margins to return to original position / cell-cell contacts to return visually after replacement of normal medium” value is recorded as “about 30 minutes”. In addition, the results for the “retraction of cell margins from each other” value in experiment [5] (60 seconds after addition of 10 mM Na2EDTA) and in experiment [5] (90 seconds after addition of 10 mM Na2EDTA) were “about 2 μm” and “about 3 μm”, respectively. The “effect on cell borders” value in experiment [6] was “retracted”.

For the origin of these results see patent US7803558B2, “Modulation of aqueous humor outflow by targeting vascular-endothelial-cadherin in Schlemm's canal cells” (The Arizona Board of Regents on behalf of the University of …, priority 2003, dated 2010).
